Ends that are not written are not given here.
Legend:
Format in all cases: cell-based
[1] = system: Enterococcus faecalis ATCC 51299 (vancomycin-resistant); settings: ATCC 51299, 2 h
Source text: (§1) The bolisin analogues of the present invention were examined for their suitability as antibiotic therapeutical agents by means of various biological tests. Thus, the chemically synthesized peptides were examined for their antimicrobial effectiveness against three Gram-positive and three Gram-negative bacterial strains as well as against a yeast.
(§2) The following microorganisms were used: • Gram-positive: Staphylococcus aureus ATCC 25923 • Enterococcus faecalis ATCC 51299 (vancomycin-resistant) • Streptococcus pneumoniae DSM 11865 (penicillin-resistant) • Gram-negative: Escherichia coli ATCC 25922 • Pseudomonas aeruginosa ATCC 9027 • Klebsiella pneumoniae ATCC 10031 • Yeast: Candida albicans ATCC 10231
(§3) The antibiotic activity of bolisin analogues was examined by determining the minimum inhibition concentration. […] This method allows to obtain a quantitative result about the antimicrobial potency of the peptides. These examinations were performed by analogy with the recommendations (M7-A3) edited by the NCCLS (National Committee for Clinical Laboratory Standards) by applying a dilution test in a liquid medium using chemically synthesized peptides (peptide sequences according to claims 1 to 3). Mueller Hinton Broth was used as the test medium according to the NCCLS recommendations unless indicated otherwise. […] The minimum inhibition concentrations are stated in [μg/ml].
(§4) A complete growth inhibition could not be achieved in this case. For determining the minimum inhibition concentration, the following microorganisms were used: • 1. Staphylococcus aureus ATCC 25923 • 2. Enterococcus faecalis ATCC 51299 (vancomycin-resistant) • 3. Streptococcus pneumoniae DSM 11865 (penicillin-resistant) • 4. Escherichia coli ATCC 25922 • 5. Pseudomonas aeruginosa ATCC 9027 • 6. Klebsiella pneumoniae ATCC 10031 • 7. Candida albicans ATCC 10231

[2] = system: Escherichia coli ATCC 25922; settings: ATCC 25922, 2 h
Source text: as §1, §2, §3, §4

[3] = system: Klebsiella pneumoniae ATCC 10031; settings: ATCC 10031, 2 h
Source text: as §1, §2, §3, §4

[4] = system: Staphylococcus aureus ATCC 25923; settings: ATCC 25923, 2 h
Source text: as §1, §2, §3, §4

[5] = system: Streptococcus pneumoniae DSM 11865 (penicillin-resistant); settings: DSM 11865, 2 h
Source text: as §1, §2, §3, §4

[6] = system: Pseudomonas aeruginosa ATCC 9027; settings: ATCC 9027, 2 h
[7] = system: Candida albicans ATCC 10231; settings: for minimum inhibition concentration: ATCC 10231, 2 h; for peptide concentration giving 75% inhibition of growth (value in parentheses): Mueller Hinton Broth, complete growth inhibition not achieved
Source text: as §1, §2, §3, §4

[8] = system: Pseudomonas aeruginosa ATCC 9027; settings: Mueller Hinton Broth; complete growth inhibition not achieved
Source text: as §1, §2
The antibiotic activity of bolisin analogues was examined by determining the minimum inhibition concentration. The minimum inhibition concentration of an analogue designates the lowest peptide concentration which is required to inhibit the growth of microorganisms completely after an incubation time of 18±2 h. This method allows to obtain a quantitative result about the antimicrobial potency of the peptides. These examinations were performed by analogy with the recommendations (M7-A3) edited by the NCCLS (National Committee for Clinical Laboratory Standards) by applying a dilution test in a liquid medium using chemically synthesized peptides (peptide sequences according to claims 1 to 3). Mueller Hinton Broth was used as the test medium according to the NCCLS recommendations unless indicated otherwise. […] The minimum inhibition concentrations are stated in [μg/ml].
as §4

| Substance | minimum inhibition concentration [1] [µg/mL] | minimum inhibition concentration [2] [µg/mL] | minimum inhibition concentration [3] [µg/mL] | minimum inhibition concentration [4] [µg/mL] | minimum inhibition concentration [5] [µg/mL] | minimum inhibition concentration [6] [µg/mL] | minimum inhibition concentration [7] [µg/mL] | peptide concentration giving 75% inhibition of growth (value in parentheses) [7] | peptide concentration giving 75% inhibition of growth (value in parentheses) [8] |
| --- | --- | --- | --- | --- | --- | --- | --- | --- | --- |
| YIRYKIRSARKRRKALK-OH [BOL-17, YIRYKIRSARKRRKALK] | 200 | 37.5 | 9.375 | 37.5 | 300 | 200 | – | – | – |
| YIRYKRRSARKRRKALK-OH [BOL-18, YIRYKRRSARKRRKALK] | >300 | 18.75 | 37.5 | 18.75 | >300 | 300 | – | – | – |
| YIVRKIRSARKRRKALK-OH [BOL-83, YIVRKIRSARKRRKALK] | >300 | >300 | >300 | >300 | >300 | >300 | 300 | – | – |
| YIVYKIRSADKRSKALK-OH [Bolisin] | >300 | >300 | >300 | >300 | >300 | >300 | >300 | – | – |
| YIVYKIRSAWKRKKALK-OH [BOL-58, YIVYKIRSAWKRKKALK] | >300 | >300 | 100 | >300 | 300 | – | – | (75) μg/ml | (100) μg/ml |
| YIVYKIRSAWKRRK-OH [BOL-69, YIVYKIRSAWKRRK] | 150 | 150 | 300 | 300 | 200 | – | 37.5 | – | (200) μg/ml |
| YIVYKIRSAWKRWK-OH [BOL-70, YIVYKIRSAWKRWK] | 150 | 100 | 75 | 100 | 150 | – | 37.5 | – | (100) μg/ml |
| YIVYKIRSAWKRWKAL [BOL-67, YIVYKIRSAWKRWKAL] | 100 | 25 | 37.5 | 25 | 100 | – | 18.75 | – | (50) μg/ml |
| YIVYKIRSAWKRWKALK-OH [BOL-45, YIVYKIRSAWKRWKALK] | 100 | 12.5 | 4.7 | 18.75 | 100 | – | 18.75 | – | (25) μg/ml |
| YIVYKIRWAKKRKKALK-OH [BOL-59, YIVYKIRWAKKRKKALK] | 50 | 150 | 18.75 | 50 | 50 | – | – | (9.375) μg/ml | (18.75) μg/ml |
| YIVYKIRWAKKRWKALK-OH [BOL-60, YIVYKIRWAKKRWKALK] | 25 | 100 | 18.75 | 50 | 50 | – | – | (18.75) μg/ml | (18.75) μg/ml |
| YIVYKIRWARKRRK-OH [BOL-73, YIVYKIRWARKRRK] | 25 | 50 | 18.75 | 37.5 | 18.75 | – | 9.375 | – | (9.375) μg/ml |
| YIVYKIRWARKRRKAL [BOL-72, YIVYKIRWARKRRKAL] | 25 | 100 | 18.75 | 75 | 18.75 | – | 18.75 | – | (12.5) μg/ml |
| YIVYKIRWARKRRKALK-OH [BOL-50, YIVYKIRWARKRRKALK] | 25 | 50 | 9.375 | 37.5 | 18.75 | – | 9.375 | – | (6.25) μg/ml |
| YIVYKIRWARKRSKALK-OH [BOL-49, YIVYKIRWARKRSKALK] | 25 | 50 | 18.75 | 75 | 18.75 | – | 18.75 | – | (12.5) μg/ml |
| YIVYKIRWARKRWKALK-OH [BOL-51, YIVYKIRWARKRWKALK] | 25 | 50 | 18.75 | 37.5 | 12.5 | 300 | – | (18.75) μg/ml | 25 µg/mL |
| YIVYKIRWAWKRKKALK-OH [BOL-61, YIVYKIRWAWKRKKALK] | 25 | 25 | 18.75 | 37.5 | 25 | 300 | 9.375 | – | 75 µg/mL |
| YIVYKIRWAWKRRKALK-OH [BOL-48, YIVYKIRWAWKRRKALK] | 12.5 | 18.75 | 4.7 | 9.375 | 9.375 | 200 | 9.375 | – | 6.5 µg/mL |
| YIVYKIRWAWKRSKALK-OH [BOL-47, YIVYKIRWAWKRSKALK] | 25 | 18.75 | 9.375 | 18.75 | 18.75 | – | 18.75 | – | (25) μg/ml |

— patent US7449545B2, “Antimicrobial bolisin peptides” (IPF Pharmaceuticals GmbH, priority 2001, dated 2008)
